Source: US10807951B2, “mTORC1 modulators” (THE REGENTS OF THE UNIVERSITY OF CALIFORNIA, priority 2017, dated 2020)

Assays:
mTORC2 = assay: p-AKT signaling in Hela cells by immunoblotting; format: cell-based; details: up to 50 μM
autophagy [1] = assay: Immunoblotting for autophagic markers LC3b and p62 in HEK-293A cells; format: cell-based
Experimental: FIGS. 6A-6D. CC 1-44 inhibits mTORC1 signaling and activates autophagy. (FIG. 6A) Visual IP experiment monitoring binding of GFP-RagB to RFP-tagged, bead-bound Lamtor complex. […] (FIG. 6B) Immunofluorescence for endogenous RagA and LAMP2 in HEK-293A cells treated with DMSO, YP 1-44 or CC 1-44 for 2 h. […] (FIG. 6C) Immunofluorescence for endogenous mTOR and LAMP2 in HEK-293A cells treated with DMSO or CC 1-44 for 2 h. […] (FIG. 6D) Immunoblotting for autophagic markers LC3b and p62 from HEK-293A cells treated with DMSO (lane 1) or CC 1-44 (lane 3) for 2 h.
In cells treated with CC 1-44, autophagy becomes activated within 1 h, as judged by accumulation of cleaved LC3b and increased degradation of p62 (FIG. 6D).

mTORC1 = mTORC1 signaling in tissues of injected mice; details: injection 100 mg/kg, heart, skeletal muscle, kidney
autophagy [2] = assay: Autophagy induction in tissues of injected mice; format: in vivo; details: 100 mg/kg vs rapamycin 10 mg/kg, heart, skeletal muscle, kidney
LAMTOR5 = LAMTOR5 (Homo sapiens, UniProt O43504); assay: Gel-based ABPP against IA-alkyne labeling of pure LAMTOR5 protein; format: binding
Description: FIGS. 9A-9C. Potency and selectivity of YP 1-44 analogs. (FIG. 9A) initial YP 1-44 analogs and their relative potency against IA-alkyne labeling of pure human LAMTOR5 protein visualized by gel-based ABPP (a). Protein expression levels were also ascertained by silver staining (b). (FIG. 9B) Gel-based ABPP IA-alkyne cysteine-reactivity analysis of YP 1-44 analogs against Rag-Ragulator complex proteins (a). Protein expression levels were also ascertained by silver staining (b). (FIG. 9C) Hela whole cell proteome gel-based ABPP analysis of IA-alkyne cysteine-reactivity with YP 1-44 analogs (a). Protein expression levels were also ascertained by silver staining (b).
Thus, we performed medicinal chemistry to optimize the potency and selectivity of our initial hits by addition of further bulk to the core YP 1-44 scaffold (FIGS. 9A-9C; FIG. 5B). We initially screened these compounds against both LAMTOR5 and the Ragulator complex using gel-based ABPP methods competing the binding of these YP 1-44 analogs against IA-alkyne labeling of these proteins (FIG. 5C, FIG. 9). We also tested these compounds against Hela cell whole proteome cysteine reactivity to get initial read-outs of proteome-wide selectivity (FIGS. 9A-9C, FIG. 5D).

RagC and RagA = assay: Rag GTPase lysosomal localization, immunofluorescence in HeLa cells; format: cell-based; details: 50 μM, 1 h
Experimental: Next, we sought to determine whether YP 1-44 had expected cellular effects in disrupting the TORC1 complex, recruitment of TORC1 to the lysosome, and TORC1 signaling. We treated Hela cells with YP 1-44 for 1 h with and without amino acid stimulation. […] This finding is consistent with the role of Lamtor as an obligate scaffold not only for mTORC1 but also for the Rag GTPases at the lysosome. […] Thus, our results establish that YP 1-44 abolishes mTORC1 signaling both in vitro and in live cells by preventing mTORC1 localization to the lysosome, and that this action occurs via disruption of the Lamtor-Rag scaffold.
HeLa cells were plated on fibronectin-coated glass coverslips in 6-well plates (35 mm diameter/well), at 300,000-500,000 cells/well. 12-16 hours later, cells were subjected to amino acid depletion for 1 h in the presence of 50 uM compounds or an equivalent volume of DMSO, restimulated with a complete amino acid mix for 10 minutes, and fixed in 4% paraformaldehyde (in PBS) for 15 min at RT. The coverslips were rinsed twice with PBS and cells were permeabilized with 0.1% (w/v) Saponin in PBS for 10 min. After rinsing twice with PBS, the slides were incubated with primary antibody in 5% normal donkey serum for 1 hr at room temperature, rinsed four times with PBS, and incubated with fluorophore-conjugated secondary antibodies produced in goat or donkey (Life Technologies, diluted 1:1000 in 5% normal donkey serum) for 45 min at room temperature in the dark, washed four times with PBS. Coverslips were mounted on glass slides using Vectashield (Vector Laboratories) and imaged on a spinning disk confocal system (Andor Revolution on a Nikon Eclipse Ti microscope).

Structure (SMILES)	effect on canonical mTORC2 substrate pAKT (mTORC2)	autophagy (LC3b band increase, p62 band disappearance) (autophagy [1]; HEK-293A cells, 2 h)	total autophagic flux (autophagy [1]; HEK-293A cells, 2 h, with Bafilomycin A)	time to autophagy activation (accumulation of cleaved LC3b, increased degradation of p62) (autophagy [1]; treated cells)	mTORC1 signaling as assessed by phospho-S6 and 4EBP1 (mTORC1)	autophagy induction compared to rapamycin (autophagy [2])	autophagy induction compared to rapamycin (autophagy [2]; listed as C 1-44)	potency against IA-alkyne labeling of LAMTOR5 (LAMTOR5)	RagA localization to LAMP2-positive lysosomes (RagC and RagA)	RagC localization to LAMP2-positive lysosomes (RagC and RagA)	RagA localization to LAMP2-positive lysosomes (RagC and RagA; listed as YP1-44)	RagC localization to LAMP2-positive lysosomes (RagC and RagA; listed as YP1-44)
C=CC(=O)N1CCc2c(OCc3cc(C(F)(F)F)cc(C(F)(F)F)c3)cccc21 [CC 1-44]	did not affect	activation of autophagy	increased	≤ 1 h	dramatic inhibition of mTORC1 signaling	superior potency to rapamycin	much stronger autophagy induction as compared to rapamycin	desirable potency				
C=CC(=O)n1ccc2ccccc21 [YP 1-44]									no longer localized to the lysosome	no longer localized to the lysosome	causes dispersion of RagA from LAMP2-positive lysosomes	causes dispersion of RagC from LAMP2-positive lysosomes
